The molecules below were run on 156681-154-R-J1-PDC complex spheroid viability (assay: Anticancer human tumor 156681-154-R-J1-PDC patient-derived melanoma cell line growth inhibition [CLK]). Settings: second compound 0.0316 µM; first compound 0.0316 µM; hits give low values.
Summary of the method: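 Multi-cell-type spheroids combined patient-derived tumor cells with HUVEC endothelial cells and human mesenchymal stem cells. Paired agents were dosed in half-log steps down from about clinical Cmax, or from 10 microM where Cmax was unknown.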
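Note: spheroids exposed to the agents for seven days; 100% = DMSO vehicle control viability.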

Row | Compound | viability, T/C [%]
1 | O=C(c1cc(Cc2n[nH]c(=O)c3ccccc23)ccc1F)N1CCN(C(=O)C2CC2)CC1 + CNC(=O)c1ccc(Nc2nc(OC3CCCC3)c3c(-c4ccc5nc(C)oc5c4)c[nH]c3n2)c(OC)c1 | 98.2
2 | CC(Nc1ccc2c(c1)OCCn1cc(N3C(=O)OCC3C(F)F)nc1-2)C(N)=O (centres undefined) + CN1CCN(c2cc(C(=O)Nc3cc4cc(-c5cnn(C)c5)ccc4cn3)ccn2)CC1 | 85.4

Same assay, conditions: second compound 0.0316 µM; first compound 0.1 µM; hits give low values

Row | Compound | viability, T/C [%]
3 | C=C(F)C(=O)N1CCN(c2nc(OCC3CCCN3C)nc3c2CCN(c2cccc4cccc(Cl)c24)C3)CC1CC#N (centres undefined) + CN1CCN(c2cc(C(=O)Nc3cc4cc(-c5cnn(C)c5)ccc4cn3)ccn2)CC1 | 107
4 | COc1ccc([C@@H](O)c2cc(-c3ncnc4cc(N5CCOCC5)ccc34)c(F)cc2Cl)nn1 + CN1CCN(c2cc(C(=O)Nc3cc4cc(-c5cnn(C)c5)ccc4cn3)ccn2)CC1 | 88.3
5 | CCCS(=O)(=O)Nc1ccc(F)c(C(=O)c2c[nH]c3ncc(-c4ccc(Cl)cc4)cc23)c1F + CNC(=O)c1ccc(Nc2nc(OC3CCCC3)c3c(-c4ccc5nc(C)oc5c4)c[nH]c3n2)c(OC)c1 | 81.1
6 | O=C(c1cc(Cc2n[nH]c(=O)c3ccccc23)ccc1F)N1CCN(C(=O)C2CC2)CC1 + CNC(=O)c1ccc(Nc2nc(OC3CCCC3)c3c(-c4ccc5nc(C)oc5c4)c[nH]c3n2)c(OC)c1 | 108
7 | CC(Nc1ccc2c(c1)OCCn1cc(N3C(=O)OCC3C(F)F)nc1-2)C(N)=O (centres undefined) + CN1CCN(c2cc(C(=O)Nc3cc4cc(-c5cnn(C)c5)ccc4cn3)ccn2)CC1 | 67

Same assay, conditions: second compound 0.0316 µM; first compound 0.316 µM; hits give low values

Row | Compound | viability, T/C [%]
8 | C=C(F)C(=O)N1CCN(c2nc(OCC3CCCN3C)nc3c2CCN(c2cccc4cccc(Cl)c24)C3)CC1CC#N (centres undefined) + CN1CCN(c2cc(C(=O)Nc3cc4cc(-c5cnn(C)c5)ccc4cn3)ccn2)CC1 | 108
9 | COc1ccc([C@@H](O)c2cc(-c3ncnc4cc(N5CCOCC5)ccc34)c(F)cc2Cl)nn1 + CN1CCN(c2cc(C(=O)Nc3cc4cc(-c5cnn(C)c5)ccc4cn3)ccn2)CC1 | 91.3
10 | CCCS(=O)(=O)Nc1ccc(F)c(C(=O)c2c[nH]c3ncc(-c4ccc(Cl)cc4)cc23)c1F + CNC(=O)c1ccc(Nc2nc(OC3CCCC3)c3c(-c4ccc5nc(C)oc5c4)c[nH]c3n2)c(OC)c1 | 70.7
11 | O=C(c1cc(Cc2n[nH]c(=O)c3ccccc23)ccc1F)N1CCN(C(=O)C2CC2)CC1 + CNC(=O)c1ccc(Nc2nc(OC3CCCC3)c3c(-c4ccc5nc(C)oc5c4)c[nH]c3n2)c(OC)c1 | 92.3
12 | CC(Nc1ccc2c(c1)OCCn1cc(N3C(=O)OCC3C(F)F)nc1-2)C(N)=O (centres undefined) + CN1CCN(c2cc(C(=O)Nc3cc4cc(-c5cnn(C)c5)ccc4cn3)ccn2)CC1 | 49.4

Same assay, conditions: second compound 0.0316 µM; first compound 1 µM; hits give low values

Row | Compound | viability, T/C [%]
13 | C=C(F)C(=O)N1CCN(c2nc(OCC3CCCN3C)nc3c2CCN(c2cccc4cccc(Cl)c24)C3)CC1CC#N (centres undefined) + CN1CCN(c2cc(C(=O)Nc3cc4cc(-c5cnn(C)c5)ccc4cn3)ccn2)CC1 | 81.1
14 | COc1ccc([C@@H](O)c2cc(-c3ncnc4cc(N5CCOCC5)ccc34)c(F)cc2Cl)nn1 + CN1CCN(c2cc(C(=O)Nc3cc4cc(-c5cnn(C)c5)ccc4cn3)ccn2)CC1 | 63.6
15 | CCCS(=O)(=O)Nc1ccc(F)c(C(=O)c2c[nH]c3ncc(-c4ccc(Cl)cc4)cc23)c1F + CNC(=O)c1ccc(Nc2nc(OC3CCCC3)c3c(-c4ccc5nc(C)oc5c4)c[nH]c3n2)c(OC)c1 | 113
16 | O=C(c1cc(Cc2n[nH]c(=O)c3ccccc23)ccc1F)N1CCN(C(=O)C2CC2)CC1 + CNC(=O)c1ccc(Nc2nc(OC3CCCC3)c3c(-c4ccc5nc(C)oc5c4)c[nH]c3n2)c(OC)c1 | 103
17 | CC(Nc1ccc2c(c1)OCCn1cc(N3C(=O)OCC3C(F)F)nc1-2)C(N)=O (centres undefined) + CN1CCN(c2cc(C(=O)Nc3cc4cc(-c5cnn(C)c5)ccc4cn3)ccn2)CC1 | 34

Same assay, conditions: second compound 0.0316 µM; first compound 3.16 µM; hits give low values

Row | Compound | viability, T/C [%]
18 | C=C(F)C(=O)N1CCN(c2nc(OCC3CCCN3C)nc3c2CCN(c2cccc4cccc(Cl)c24)C3)CC1CC#N (centres undefined) + CN1CCN(c2cc(C(=O)Nc3cc4cc(-c5cnn(C)c5)ccc4cn3)ccn2)CC1 | 44
19 | COc1ccc([C@@H](O)c2cc(-c3ncnc4cc(N5CCOCC5)ccc34)c(F)cc2Cl)nn1 + CN1CCN(c2cc(C(=O)Nc3cc4cc(-c5cnn(C)c5)ccc4cn3)ccn2)CC1 | 45.3
20 | CCCS(=O)(=O)Nc1ccc(F)c(C(=O)c2c[nH]c3ncc(-c4ccc(Cl)cc4)cc23)c1F + CNC(=O)c1ccc(Nc2nc(OC3CCCC3)c3c(-c4ccc5nc(C)oc5c4)c[nH]c3n2)c(OC)c1 | 76.8
21 | O=C(c1cc(Cc2n[nH]c(=O)c3ccccc23)ccc1F)N1CCN(C(=O)C2CC2)CC1 + CNC(=O)c1ccc(Nc2nc(OC3CCCC3)c3c(-c4ccc5nc(C)oc5c4)c[nH]c3n2)c(OC)c1 | 92.5
22 | CC(Nc1ccc2c(c1)OCCn1cc(N3C(=O)OCC3C(F)F)nc1-2)C(N)=O (centres undefined) + CN1CCN(c2cc(C(=O)Nc3cc4cc(-c5cnn(C)c5)ccc4cn3)ccn2)CC1 | 30

Same assay, conditions: second compound 0.0316 µM; first compound 10 µM; hits give low values

Row | Compound | viability, T/C [%]
23 | C=C(F)C(=O)N1CCN(c2nc(OCC3CCCN3C)nc3c2CCN(c2cccc4cccc(Cl)c24)C3)CC1CC#N (centres undefined) + CN1CCN(c2cc(C(=O)Nc3cc4cc(-c5cnn(C)c5)ccc4cn3)ccn2)CC1 | 0.43
24 | COc1ccc([C@@H](O)c2cc(-c3ncnc4cc(N5CCOCC5)ccc34)c(F)cc2Cl)nn1 + CN1CCN(c2cc(C(=O)Nc3cc4cc(-c5cnn(C)c5)ccc4cn3)ccn2)CC1 | 19.2
25 | CCCS(=O)(=O)Nc1ccc(F)c(C(=O)c2c[nH]c3ncc(-c4ccc(Cl)cc4)cc23)c1F + CNC(=O)c1ccc(Nc2nc(OC3CCCC3)c3c(-c4ccc5nc(C)oc5c4)c[nH]c3n2)c(OC)c1 | 8.32
26 | O=C(c1cc(Cc2n[nH]c(=O)c3ccccc23)ccc1F)N1CCN(C(=O)C2CC2)CC1 + CNC(=O)c1ccc(Nc2nc(OC3CCCC3)c3c(-c4ccc5nc(C)oc5c4)c[nH]c3n2)c(OC)c1 | 79.3
27 | CC(Nc1ccc2c(c1)OCCn1cc(N3C(=O)OCC3C(F)F)nc1-2)C(N)=O (centres undefined) + CN1CCN(c2cc(C(=O)Nc3cc4cc(-c5cnn(C)c5)ccc4cn3)ccn2)CC1 | 20

Same assay, conditions: second compound 0.1 µM; first compound 0.0316 µM; hits give low values

Row | Compound | viability, T/C [%]
28 | C=C(F)C(=O)N1CCN(c2nc(OCC3CCCN3C)nc3c2CCN(c2cccc4cccc(Cl)c24)C3)CC1CC#N (centres undefined) + CN1CCN(c2cc(C(=O)Nc3cc4cc(-c5cnn(C)c5)ccc4cn3)ccn2)CC1 | 94.3
29 | COc1ccc([C@@H](O)c2cc(-c3ncnc4cc(N5CCOCC5)ccc34)c(F)cc2Cl)nn1 + CN1CCN(c2cc(C(=O)Nc3cc4cc(-c5cnn(C)c5)ccc4cn3)ccn2)CC1 | 97.5
